Measured values as given in patent publication US9375477B2 (GALDERMA RESEARCH & DEVELOPMENT, priority 2012, dated 2016).

Assay: In vitro cutaneous penetration on human skin (Franz cell)
Type: in vitro ADME
Settings: 16 hours after application; the 3 formulae evaluated (Examples 2 and 9, reference gel)
Protocol: The cutaneous penetration studies performed on the formulations of the invention containing an active principle of the retinoid class were performed in vitro on whole human abdominal skin after excision, this skin being mounted on a Franz cell.
After topical application of a given amount of the formulation to the surface of the skin, the penetration of the active principle is measured 16 hours after application.
The amount of active principle of the retinoid class is measured in the various skin compartments: stratum corneum, epidermis, dermis and also in the receiving liquid.
The bioanalysis was carried out by positive electrospray ionization tandem mass spectrometry, and using a Xevo machine (Waters).
The quantification limit for compound A is 0.5 ng/mL. The LC/MS/MS conditions developed made it possible to detect up to 0.1% of the dose applied in each of the compartments (dose not absorbed, stratum, epidermis, dermis and receiving liquid). The appropriateness, accuracy and repeatability of the method were checked in each of the matrices, and made it possible to validate the bioanalysis method.
In this type of “single point” study, the parameters retained are: • a. the distribution profile in the various compartments (qualitative data) • b. the penetration into the epidermis+dermis compartment (numerical data)

- Compound A in the receiving liquid: not detected
SMILES: CC(C)(C)c1cc(-c2cc(-c3ccc(C(=O)O)cc3)ccc2OCCO)ccc1N1CCCC1 [Compound A, 3″-tert-butyl-4′-(2-hydroxyethoxy)-4″-pyrrolidin-1-yl-[1,1′; 3′,1″]-terphenyl-4-carboxylic acid]
